The values that follow come from patent publication US20230382863A1, “MEK INHIBITORS AND USES THEREOF” (Ikena Oncology, Inc., priority 2022, published 2023).

Data set [1] addresses uMEK/BRAF (Homo sapiens (Human), UniProt Q02750). Briefly: MEK-RAF Binding Assay (uMEK/BRAF HTRF).
For data set [2], the system named is pERK HCT-116 (G13D). Briefly: pERK HCT-116 (G13D) ICW (4 hour). In kind it is cell-based.
Data set [3] in a line: Cassette pharmacokinetics studies in mice. In kind it is in vivo. Conditions: male, Balb/c, plasma; Mouse, PO, 5 mg/kg. As for the experimental part: Pharmacokinetics studies were conducted using cassette dosing protocols, with test compounds administered per mouse. Treatment groups were 3 mice (˜6-8 weeks old, ˜20-30 g Balb/c male mice) per route of administration. Compounds were formulated in 5% DMSO and 95% PEG400 with final concentrations of 0.5 mg/mL for IV and PO dosing. Compounds were dosed at 2 mg/kg for IV dosing and 5 mg/kg for PO dosing. Blood samples were withdrawn at 0.083, 0.25, 0.5, 1.0, 2.0, 4.0, 6.0, 8.0, and 24 hours following IV dosing, and 0.25, 0.5, 1.0, 2.0, 4.0, 6.0, 8.0, and 24 hours following PO dosing. Blood samples were centrifuged at 4,000 g for 5 minutes at 4° C. to obtain plasma samples. Plasma samples were diluted with acetonitrile containing internal standard, vortexed for 30 seconds, then centrifuged at 4,000 rpm for 15 minutes at 4° C. The supernatant was diluted with water, and compound concentration was determined by HPLC/MS/MS compared to calibration standards of 0.5-1,000 ng/mL.
Where route is listed as “IV*”, the compound was dosed IV at 1 mg/kg.

In data set [4] the target is MEK1-CRAF complex (Homo sapiens (Human), UniProt Q02750). Briefly: Stabilization of MEK1-CRAF complex assay (AlphaLISA). In kind it is binding. As for the experimental part: MEK1 was diluted to 4 nM, and nickel chelate donor beads and glutathione acceptor beads were diluted to 80 μg/mL. CRAF was diluted to a top concentration of 160 nM, which was subsequently diluted to 80, 40, 20, 10, 5, 2.5, 1.25, and 0.625 nM through 1:2 serial dilution.
Exemplary MEK inhibitor compounds (0, 0.01, 0.1, or 1 μM) were added to a 384-AlphaPlate (PerkinElmer, 6008350) by a digital liquid dispenser (Tecan D300e) based on a total volume of 20 μL reaction mixture.
5 μL 4×MEK1 stock solution was added to wells A1-P20 by multichannel pipettes. The plate was sealed with clear olefin sealing tape (Thermo Scientific, 232701), centrifuged at 1000 rpm for 1 minute, and incubated at room temperature for 30 minutes.
5 μL 4×CRAF stock solution at different concentrations or 5 μL or 10 μL AlphaLISA buffer was added by multichannel pipettes. The plate was sealed, centrifuged at 1000 rpm for 1 minute, and incubated at room temperature for 60 minutes.
5 μL 4×glutathione acceptor beads were first added to all wells by multichannel pipettes. The ambient light was subsequently adjusted to <100 lux (light meter) before adding 5 μL 4×nickel chelate donor beads to the same wells. From this step on, the plate was covered with a black plate cover, centrifuged at 1000 rpm for 1 minute, and incubated at room temperature for 60 minutes.
Data were collected on a PHERAStar FSX (BMG LABTECH) using the AlphaLISA module (excitation: 680 nm, emission: 615 nm), with a gain of 3600. The excitation time was 0.30 seconds, and data collection started after a 0.04-second delay for a total integration time of 0.60 seconds.
The individual AlphaLISA counts of wells with exemplary MEK inhibitor compound were divided by the average AlphaLISA counts of wells without compound to obtain AlphaLISA signal/background ratio (S/B). The dissociation constant (KD) of MEK1-CRAF was calculated using nonlinear regression curve fit in GraphPad PRISM® 9.0 software.

[5] abbreviates: Homo sapiens, read-out: pERK HCT-116 (G13D) ICW (4 hour): Average IC50 (nM).
The mark [6] stands for this setting: read-out: pERK HCT-116 (G13D) ICW (4 hour): Average IC50.

Read-outs that look alike come from different tables or passages of the source.

Take `Cc1c(Oc2cccc(N=S(C)(N)=O)c2)c(C(=O)NC2CC2)c(Nc2ccc(I)cc2F)n(C)c1=O` (stereo in doubt) [Compound I-7, (S)-4-(3-((amino(methyl)oxo-lambda6-sulfaneylidene)amino)phenoxy)-N-cyclopropyl-2-((2-fluoro-4-iodophenyl)amino)-1,5-dimethyl-6-oxo-1,6-dihydropyridine-3-carboxamide]: the values for the half-maximal inhibitory concentration (IC50) in data set [1] and in data set [2] (setting [5]) were less than 0.1 µM and less than 100 nM, respectively.

As for `Cc1c(Oc2cccc(N=S(C)(N)=O)c2)c(C(=O)NC2CC2)c(Nc2ccc(I)cc2F)n(C)c1=O` (stereo in doubt) [Compound I-8, (R)-4-(3-((amino(methyl)oxo-lambda6-sulfaneylidene)amino)phenoxy)-N-cyclopropyl-2-((2-fluoro-4-iodophenyl)amino)-1,5-dimethyl-6-oxo-1,6-dihydropyridine-3-carboxamide], the IC50 in data set [1] was less than 0.1 µM; in data set [2] (setting [5]), less than 100 nM.

Take `CNS(=O)(=O)Nc1cccc(Oc2c(C(=O)NC3CC3)c(Nc3ccc(I)cc3F)n(C)c(=O)c2C)c1C` [Compound I-3]: the IC50 is less than 0.1 µM in data set [1] and less than 100 nM in data set [2] (setting [5]).

For `CNS(=O)(=O)Nc1cccc(Oc2c(C(=O)NC3CC3)c(Nc3ccc(I)cc3F)n(C)c(=O)c2C)c1F` [Compound I-4, N-cyclopropyl-4-{2-fluoro-3-[(methylsulfamoyl)amino]phenoxy}-2-[(2-fluoro-4-iodophenyl)amino]-1,5-dimethyl-6-oxopyridine-3-carboxamide], the results for the IC50 in data set [1] and in data set [2] (setting [5]) were less than 0.1 µM and less than 100 nM, respectively.

Consider `CNS(=O)(=O)Nc1cccc(Oc2c(C(=O)NC3CC3)c(Nc3ccc(I)cc3F)n(C)c(=O)c2C)c1` [Compound I-5, N-cyclopropyl-2-((2-fluoro-4-iodophenyl)amino)-1,5-dimethyl-4-(3-((N-methylsulfamoyl)amino)phenoxy)-6-oxo-1,6-dihydropyridine-3-carboxamide], for which the values for the concentration for half-maximal inhibition (IC50) in data set [1] and in data set [2] (setting [5]) were less than 0.1 µM and less than 100 nM, respectively.

In the case of `Cc1c(Oc2cccc(NS(N)(=O)=O)c2)c(C(=O)NC2CC2)c(Nc2ccc(I)cc2F)n(C)c1=O` [Compound I-6], the half-inhibitory concentration (IC50) in data set [1] is less than 0.1 µM; in data set [2] (setting [5]), less than 100 nM.

For the molecule `CNS(=O)(=O)Nc1cc(F)cc(Oc2c(C(=O)NC3CC3)c(Nc3ccc(I)cc3F)n(C)c(=O)c2C)c1` [Compound I-10], the IC50 in data set [1] was less than 0.1 µM; in data set [2] (setting [5]), less than 100 nM.

With `Cc1c(Oc2cccc(CS(=O)(=O)N(C)C)c2)c(C(=O)NC2CC2)c(Nc2ccc(I)cc2F)n(C)c1=O` [Compound I-11], the IC50 is less than 0.1 µM in data set [1] and 100 to 1000 nM in data set [2] (setting [5]).

Turning to `CNS(=O)(=O)n1ccc2c(Oc3c(C(=O)NC4CC4)c(Nc4ccc(I)cc4F)n(C)c(=O)c3C)cccc21` [Compound I-12], the half-maximal inhibitory concentration (IC50) in data set [1] is less than 0.1 µM; in data set [2] (setting [5]), 1000 to 10000 nM.

For `Cc1c(Oc2ccc3c(c2)NS(=O)(=O)NC3)c(C(=O)NC2CC2)c(Nc2ccc(I)cc2F)n(C)c1=O` [Compound I-13], the IC50 lay in the range of 0.1 to 1 µM in data set [1] and 100 to 1000 nM in data set [2] (setting [5]).

In the case of `CNS(=O)(=O)Nc1cc(Oc2c(C(=O)NC3CC3)c(Nc3ccc(I)cc3F)n(C)c(=O)c2C)ccc1F` [Compound I-15], the IC50 in data set [1] is 0.1 to 1 µM; in data set [2] (setting [5]), 100 to 1000 nM.

For the molecule `Cc1c(Oc2cccc(CS(N)(=O)=O)c2)c(C(=O)NC2CC2)c(Nc2ccc(I)cc2F)n(C)c1=O` [Compound I-16], the figures for the half-inhibitory concentration (IC50) in data set [1] and in data set [2] (setting [5]) were 0.1 to 1 µM and 100 to 1000 nM, respectively.

Regarding `CNS(=O)(=O)Nc1ccc(F)c(Oc2c(C(=O)NC3CC3)c(Nc3ccc(I)cc3F)n(C)c(=O)c2C)c1` [Compound I-17], the 50% inhibitory concentration (IC50) in data set [1] was 0.1 to 1 µM; in data set [2] (setting [5]), 100 to 1000 nM.

Regarding `CNS(=O)(=O)Nc1cc(Oc2c(C(=O)NC3CC3)c(Nc3ccc(I)cc3F)n(C)c(=O)c2C)ccc1OC` [Compound I-18], the concentration for half-maximal inhibition (IC50) in data set [1] lay within 0.1 to 1 µM; in data set [2] (setting [5]) it was 1000 to 10000 nM.

`CNS(=O)(=O)Nc1cc(Oc2c(C(=O)NC3CC3)c(Nc3ccc(I)cc3F)n(C)c(=O)c2C)ccc1C` [Compound I-22]: the IC50 in data set [1] lay in the range of 0.1 to 1 µM; in data set [2] (setting [5]) it was 1000 to 10000 nM.

With `CNS(=O)(=O)Cc1cccc(Oc2c(C(=O)NC3CC3)c(Nc3ccc(I)cc3F)n(C)c(=O)c2C)c1` [Compound I-23, N-cyclopropyl-2-((2-fluoro-4-iodophenyl)amino)-1,5-dimethyl-4-(3-((N-methylsulfamoyl)methyl)phenoxy)-6-oxo-1,6-dihydropyridine-3-carboxamide], the half-maximal inhibitory concentration (IC50) lay within 0.1 to 1 µM in data set [1] and 1000 to 10000 nM in data set [2] (setting [6]).

Consider `CNS(=O)(=O)Nc1cccc(Oc2c(C(=O)N(C)C3CC3)c(Nc3ccc(I)cc3F)n(C)c(=O)c2C)c1C` [Compound I-24], for which the concentration for half-maximal inhibition (IC50) in data set [1] was 1 to 10 µM; in data set [2] (setting [5]), 100 to 1000 nM.

For the molecule `CNS(=O)(=O)Nc1cc(OC)cc(Oc2c(C(=O)NC3CC3)c(Nc3ccc(I)cc3F)n(C)c(=O)c2C)c1` [Compound I-25], the results for the half-maximal inhibitory concentration (IC50) in data set [1] and in data set [2] (setting [5]) were 1 to 10 µM and 1000 to 10000 nM, respectively.

As for `CNS(=O)(=O)Nc1ccc(OC)c(Oc2c(C(=O)NC3CC3)c(Nc3ccc(I)cc3F)n(C)c(=O)c2C)c1` [Compound I-26], the IC50 in data set [1] lay in the range of 1 to 10 µM; in data set [2] (setting [5]) it was 1000 to 10000 nM.

With `CNS(=O)(=O)Nc1cccc(Oc2c(C(=O)NC(C)C)c(Nc3ccc(I)cc3F)n(C)c(=O)c2C)c1Cl` [Compound I-41], in data set [3], the AUC(0-inf) was found to be 3470 ng·h/mL, the exposure AUC(0-t) was found to be 3340 ng·h/mL, the peak level (Cmax) was 1260 ng/mL and the time to peak (Tmax) was found to be 0.5 h. This molecule had a half-life in data set [3] of 1.62 h. The “KD Ratio (mean), compound to DMSO” value in data set [4] (compound 0.01 μM) was determined as 0.79. Besides, the “KD Ratio (mean), compound to DMSO” value in data set [4] (compound 0.1 μM) is listed as 0.57. Moreover, the “KD Ratio (mean), compound to DMSO” value in data set [4] (compound 1 μM) was 0.48.

On to `CCNC(=O)c1c(Oc2cccc(NS(=O)(=O)NC)c2Cl)c(C)c(=O)n(C)c1Nc1ccc(I)cc1F` [Compound I-54], for which, in data set [3], the AUC(0-inf) was determined as 4540 ng·h/mL, the AUC(0-t) stood at 4390 ng·h/mL, the Cmax worked out at 1670 ng/mL and the time to peak (Tmax) stood at 0.5 h. Also, the half-life in data set [3] was 1.6 h. Also, the “KD Ratio (mean), compound to DMSO” value in data set [4] (compound 0.01 μM) came out at 0.58. Further, the “KD Ratio (mean), compound to DMSO” value in data set [4] (compound 0.1 μM) is on record as 0.36. Besides, the “KD Ratio (mean), compound to DMSO” value in data set [4] (compound 1 μM) was found to be 0.35.

In the case of `Cc1c(Oc2ccc3c(c2)CNS(=O)(=O)N3)c(C(=O)NC2CC2)c(Nc2ccc(I)cc2F)n(C)c1=O` [Compound I-59], the half-maximal inhibitory concentration (IC50) in data set [1] lay within 0.1 to 1 µM; in data set [2] (setting [5]), 100 to 1000 nM.

Take `Cc1c(Oc2ccc3c(c2)CN(C)S(=O)(=O)N3)c(C(=O)NC2CC2)c(Nc2ccc(I)cc2F)n(C)c1=O` [Compound I-60]: the concentration for half-maximal inhibition (IC50) in data set [1] was 0.1 to 1 µM; in data set [2] (setting [5]) it was less than 100 nM.

With `Cc1c(Oc2ccc3c(c2)CNS(=O)(=O)N3C)c(C(=O)NC2CC2)c(Nc2ccc(I)cc2F)n(C)c1=O` [Compound I-61], the IC50 in data set [1] lay within 0.1 to 1 µM; in data set [2] (setting [5]), 100 to 1000 nM.

As for `Cc1c(Nc2ccc3c(c2)CNS(=O)(=O)N3)c(C(=O)NC2CC2)c(Nc2ccc(I)cc2F)n(C)c1=O` [Compound I-62], the half-inhibitory concentration (IC50) in data set [1] is less than 0.1 µM; in data set [2] (setting [5]), less than 100 nM.

For “N-cyclopropyl-2-[(2-fluoro-4-iodophenyl)amino]-4-(3-methanesulfonoimidamidophenoxy)-1,5-dimethyl-6-oxopyridine-3-carboxamide [Compound I-20]”, the IC50 lay within 0.1 to 1 µM in data set [1] and 100 to 1000 nM in data set [2] (setting [6]).
